Assay [1] deals with β-D-glucuronidase from Helix Pommatia type HP-2. Briefly: Quick test for enzyme recognition of GUS substrates. Format: biochemical. The protocol:
Dibutyl GUS substrate (compound 27) was tested. First a solution of 2 mg of product (compound 27) in 2 ml pH 8 buffer solution (Merck Titrisol 9888) was made. 1 ml of this solution was kept aside, to the other 1 ml solution 5 μl (500 UNITS) β-D-glucuronidase from Helix Pommatia type HP-2 (Sigma G7017) was added. […] The plate was developed using isooctane/acetone 60:40.

The test system of assay [2] is GUS reporter enzyme in hair-root cells of a transgenic tobacco plant. Put plainly: Testing substrate in vivo, confocal microscopy of hair-root cells. The following applies: cells not permeabilized. Type of assay: cell-based. An excerpt: FIG. 1. Testing substrate (compound 27) in vivo.
For assay [3], the system named is GUS transfected 293T cells. Put plainly: Enzymatic test in mammalian cells electroporated with pLNCGUS. Format: cell-based. The settings on record: 10 μg/ml. The method, then:
FIG. 3. Fluorescent (=GUS transfected) and non-fluorescent 293T cells with the presence of compound 27.
Cells were electroporated in the presence of 10 μg pLNCGUS and after 24 hours, compound 27 (10 mM stock in DMSO) was added to a final concentration of 10 μg/ml. Less than 5% of the cells had taken up the pLNCGUS plasmid.

Structures are written as SMILES.

With `CCCCCc1ccc(O[C@@H]2O[C@H](C(=O)O)[C@@H](O)[C@H](O)[C@H]2O)c(-c2nc3ccc(CCCCC)cc3c(=O)[nH]2)c1` [compound 24, 1-O-(2-(4-oxo-6-n-pentyl-3H-quinazolinyl)-4-n-pentylphenyl)-β-D-glucuronic acid], in assay [1] (after 30 minutes), the “reaction in GUS substrate test” value is on record as “clear positive reaction”.
With `CCCCc1ccc(O[C@@H]2OC(C(=O)O)[C@@H](O)[C@@H](O)C2O)c(-c2nc3ccc(CCCC)cc3c(=O)[nH]2)c1` (some centres unmarked) [compound 27], in assay [1] (2 mg in 2 ml pH 8 buffer, 500 UNITS enzyme per 1 ml, 15 minutes shaking at room temperature), the “fluorescent spot on TLC plate after incubation with GUS enzyme (conversion of non-fluorescent substrate into fluorescent product)” value is listed as “clear fluorescent spot”. Moreover, the “detection of GUS reporter enzyme in the cell nucleus” value in assay [2] is on record as “can be shown with lipophilic GUS substrate (compound 27) without permeabilizing cells”. Besides, the “fluorescence of cells in the presence of substrate” value in assay [3] (293T cells electroporated with 10 μg pLNCGUS, substrate added after 24 hours) is given as “Fluorescent”; in assay [3] (cells electroporated in the absence of pLNCGUS), “weak background fluorescence”.

For the origin of these results see patent US7863428B2, “Fluorogenic enzyme substrates and methods of preparation” (Tibotec BVBA, priority 2002, dated 2011).
